Data taken from article PMC10600247, “Impact of C- and N-terminal protection on the stability, metal chelation and antimicrobial properties of calcitermin” (Scientific Reports, 2023).
Residues, ends and D or L forms follow the SMILES beside them.

Experiments:
S. aureus (ATCC 25293) = experiment: In vitro anti-S. aureus CFU assay; format: cell-based, Staphylococcus aureus; conditions: 3 h, pH 5.4; for mean CFU number ± S.D.: per 0.1 mL
Outline: (§1)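 Peptides (final 0.128, 0.064, 0.032 mg/mL), alone or with ZnCl2 or CuCl2 at M:L 0.9:1, were incubated with 10^3 CFU/well in PBS pH 5.4 plus 1.5% TSB at 37 °C with slow rocking for 3 and 24 h. Aliquots were plated on TSA and CFU counted after 24 h; triplicate.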

E. coli (ATCC 25922) = experiment: In vitro anti-E. coli CFU assay; format: cell-based, Escherichia coli; conditions: pH 5.4; for mean CFU number ± S.D.: per 0.1 mL
Outline: as §1

C. albicans (ATCC 10231) = experiment: In vitro antifungal CFU assay; format: cell-based, Candida albicans; conditions: pH 5.4; for mean CFU number ± S.D.: per 0.1 mL
Outline: as §1

[1] = peptide 0.032 mg/mL + CuCl2 (0.9:1)
[2] = peptide 0.032 mg/mL + ZnCl2 (0.9:1)
[3] = peptide 0.064 mg/mL + CuCl2 (0.9:1)
[4] = peptide 0.064 mg/mL + ZnCl2 (0.9:1)
[5] = peptide 0.032 mg/mL + CuCl2 (0.9:1), 3 h
[6] = peptide 0.032 mg/mL + CuCl2 (0.9:1), 24 h
[7] = peptide 0.032 mg/mL + ZnCl2 (0.9:1), 3 h
[8] = peptide 0.032 mg/mL + ZnCl2 (0.9:1), 24 h
[9] = peptide 0.064 mg/mL + CuCl2 (0.9:1), 3 h
[10] = peptide 0.064 mg/mL + CuCl2 (0.9:1), 24 h
[11] = peptide 0.064 mg/mL + ZnCl2 (0.9:1), 3 h
[12] = peptide 0.064 mg/mL + ZnCl2 (0.9:1), 24 h
[13] = peptide 0.128 mg/mL + CuCl2 (0.9:1), 3 h
[14] = peptide 0.128 mg/mL + CuCl2 (0.9:1), 24 h
[15] = peptide 0.128 mg/mL + ZnCl2 (0.9:1), 3 h
[16] = peptide 0.128 mg/mL + ZnCl2 (0.9:1), 24 h
[17] = peptide alone 0.032 mg/mL, 24 h
[18] = peptide alone 0.064 mg/mL, 24 h
[19] = peptide alone 0.128 mg/mL, 24 h

CC[C@H](C)[C@H](NC(=O)[C@H](C)NC(=O)[C@@H](N)C(C)C)C(=O)N[C@@H](C)C(=O)N[C@@H](CC(C)C)C(=O)N[C@@H](CCCCN)C(=O)N[C@@H](C)C(=O)N[C@@H](C)C(=O)N[C@@H](Cc1c[nH]cn1)C(=O)N[C@@H](Cc1ccc(O)cc1)C(=O)N[C@@H](Cc1c[nH]cn1)C(=O)N[C@H](C(=O)N[C@@H](Cc1c[nH]cn1)C(=O)N[C@@H](CCCCN)C(=O)N[C@@H](CCC(=O)O)C(N)=O)[C@@H](C)O [L3, VAIALKAAHYHTHKE-NH2] (H-VAIALKAAHYHTHKE-NH2)
CFU decrease/increase with respect to untreated controls (S. aureus (ATCC 25293); [1]): +6%
mean CFU number ± S.D. (S. aureus (ATCC 25293); [1]): 187 ± 13 CFU
CFU decrease/increase with respect to untreated controls (S. aureus (ATCC 25293); [2]): -6%
mean CFU number ± S.D. (S. aureus (ATCC 25293); [2]): 167 ± 22 CFU
CFU decrease/increase with respect to untreated controls (S. aureus (ATCC 25293); [3]): -2%
mean CFU number ± S.D. (S. aureus (ATCC 25293); [3]): 173 ± 69 CFU
CFU decrease/increase with respect to untreated controls (S. aureus (ATCC 25293); [4]): -50%
mean CFU number ± S.D. (S. aureus (ATCC 25293); [4]): 88 ± 18 CFU
mean CFU number ± S.D. (S. aureus (ATCC 25293); peptide 0.128 mg/mL + CuCl2 (0.9:1)): 94 ± 2 CFU
mean CFU number ± S.D. (S. aureus (ATCC 25293); peptide 0.128 mg/mL + ZnCl2 (0.9:1)): 48 ± 8 CFU
CFU decrease/increase with respect to untreated controls (S. aureus (ATCC 25293); peptide alone 0.032 mg/mL): -28%
mean CFU number ± S.D. (S. aureus (ATCC 25293); peptide alone 0.032 mg/mL): 127 ± 64 CFU
mean CFU number ± S.D. (S. aureus (ATCC 25293); peptide alone 0.064 mg/mL): 101 ± 30 CFU
mean CFU number ± S.D. (S. aureus (ATCC 25293); peptide alone 0.128 mg/mL): 91 ± 12 CFU
mean CFU number ± S.D. (E. coli (ATCC 25922); [5]): 509 ± 100 CFU
CFU decrease/increase with respect to untreated controls (E. coli (ATCC 25922); [6]): +7%
mean CFU number ± S.D. (E. coli (ATCC 25922); [6]): 184 ± 17 CFU
mean CFU number ± S.D. (E. coli (ATCC 25922); [7]): 439 ± 91 CFU
CFU decrease/increase with respect to untreated controls (E. coli (ATCC 25922); [8]): +17%
mean CFU number ± S.D. (E. coli (ATCC 25922); [8]): 202 ± 23 CFU
mean CFU number ± S.D. (E. coli (ATCC 25922); [9]): 198 ± 117 CFU
CFU decrease/increase with respect to untreated controls (E. coli (ATCC 25922); [10]): -20%
mean CFU number ± S.D. (E. coli (ATCC 25922); [10]): 138 ± 48 CFU
mean CFU number ± S.D. (E. coli (ATCC 25922); [11]): 224 ± 4 CFU
CFU decrease/increase with respect to untreated controls (E. coli (ATCC 25922); [12]): +8%
mean CFU number ± S.D. (E. coli (ATCC 25922); [12]): 186 ± 21 CFU
mean CFU number ± S.D. (E. coli (ATCC 25922); [13]): 191 ± 7 CFU
mean CFU number ± S.D. (E. coli (ATCC 25922); [14]): 102 ± 20 CFU
mean CFU number ± S.D. (E. coli (ATCC 25922); [15]): 59 ± 9 CFU
CFU decrease/increase with respect to untreated controls (E. coli (ATCC 25922); [16]): +9%
mean CFU number ± S.D. (E. coli (ATCC 25922); [16]): 187 ± 17 CFU
CFU decrease/increase with respect to untreated controls (E. coli (ATCC 25922); peptide alone 0.032 mg/mL, 3 h): -23%
mean CFU number ± S.D. (E. coli (ATCC 25922); peptide alone 0.032 mg/mL, 3 h): 810 ± 100 CFU
CFU decrease/increase with respect to untreated controls (E. coli (ATCC 25922); [17]): +17%
mean CFU number ± S.D. (E. coli (ATCC 25922); [17]): 202 ± 18 CFU
CFU decrease/increase with respect to untreated controls (E. coli (ATCC 25922); peptide alone 0.064 mg/mL, 3 h): -30%
mean CFU number ± S.D. (E. coli (ATCC 25922); peptide alone 0.064 mg/mL, 3 h): 737 ± 147 CFU
CFU decrease/increase with respect to untreated controls (E. coli (ATCC 25922); [18]): -3%
mean CFU number ± S.D. (E. coli (ATCC 25922); [18]): 166 ± 8 CFU
CFU decrease/increase with respect to untreated controls (E. coli (ATCC 25922); peptide alone 0.128 mg/mL, 3 h): -15%
mean CFU number ± S.D. (E. coli (ATCC 25922); peptide alone 0.128 mg/mL, 3 h): 893 ± 113 CFU
CFU decrease/increase with respect to untreated controls (E. coli (ATCC 25922); [19]): +12%
mean CFU number ± S.D. (E. coli (ATCC 25922); [19]): 193 ± 9 CFU
CFU decrease/increase with respect to untreated controls (C. albicans (ATCC 10231); [5]): +23%
mean CFU number ± S.D. (C. albicans (ATCC 10231); [5]): 187 ± 20 CFU
CFU decrease/increase with respect to untreated controls (C. albicans (ATCC 10231); [6]): -19%
mean CFU number ± S.D. (C. albicans (ATCC 10231); [6]): 2,042 ± 137 CFU
CFU decrease/increase with respect to untreated controls (C. albicans (ATCC 10231); [7]): +6%
mean CFU number ± S.D. (C. albicans (ATCC 10231); [7]): 160 ± 25 CFU
CFU decrease/increase with respect to untreated controls (C. albicans (ATCC 10231); [8]): +2%
mean CFU number ± S.D. (C. albicans (ATCC 10231); [8]): 2,557 ± 251 CFU
CFU decrease/increase with respect to untreated controls (C. albicans (ATCC 10231); [9]): +59%
mean CFU number ± S.D. (C. albicans (ATCC 10231); [9]): 241 ± 23 CFU
CFU decrease/increase with respect to untreated controls (C. albicans (ATCC 10231); [10]): -8%
mean CFU number ± S.D. (C. albicans (ATCC 10231); [10]): 2,315 ± 546 CFU
CFU decrease/increase with respect to untreated controls (C. albicans (ATCC 10231); [11]): -2%
mean CFU number ± S.D. (C. albicans (ATCC 10231); [11]): 148 ± 22 CFU
mean CFU number ± S.D. (C. albicans (ATCC 10231); [12]): 1,596 ± 145 CFU
CFU decrease/increase with respect to untreated controls (C. albicans (ATCC 10231); [13]): +53%
mean CFU number ± S.D. (C. albicans (ATCC 10231); [13]): 230 ± 3 CFU
CFU decrease/increase with respect to untreated controls (C. albicans (ATCC 10231); [14]): -33%
mean CFU number ± S.D. (C. albicans (ATCC 10231); [14]): 1,687 ± 111 CFU
mean CFU number ± S.D. (C. albicans (ATCC 10231); [15]): 71 ± 17 CFU
mean CFU number ± S.D. (C. albicans (ATCC 10231); [16]): 605 ± 97 CFU
CFU decrease/increase with respect to untreated controls (C. albicans (ATCC 10231); peptide alone 0.032 mg/mL, 3 h): +25%
mean CFU number ± S.D. (C. albicans (ATCC 10231); peptide alone 0.032 mg/mL, 3 h): 189 ± 23 CFU
CFU decrease/increase with respect to untreated controls (C. albicans (ATCC 10231); [17]): -10%
mean CFU number ± S.D. (C. albicans (ATCC 10231); [17]): 2,263 ± 251 CFU
CFU decrease/increase with respect to untreated controls (C. albicans (ATCC 10231); peptide alone 0.064 mg/mL, 3 h): +20%
mean CFU number ± S.D. (C. albicans (ATCC 10231); peptide alone 0.064 mg/mL, 3 h): 182 ± 27 CFU
CFU decrease/increase with respect to untreated controls (C. albicans (ATCC 10231); [18]): -12%
mean CFU number ± S.D. (C. albicans (ATCC 10231); [18]): 2,204 ± 170 CFU
CFU decrease/increase with respect to untreated controls (C. albicans (ATCC 10231); peptide alone 0.128 mg/mL, 3 h): -5%
mean CFU number ± S.D. (C. albicans (ATCC 10231); peptide alone 0.128 mg/mL, 3 h): 144 ± 11 CFU
CFU decrease/increase with respect to untreated controls (C. albicans (ATCC 10231); [19]): -14%
mean CFU number ± S.D. (C. albicans (ATCC 10231); [19]): 2,164 ± 101 CFU
